Values quoted from earlier work as cited in US20060089285A1, “Stabilized chlorine bleach in alkaline detergent composition and method of making and using the same” (priority 2004, published 2006).

Columns and labels:
[1] = in an alkaline liquid detergent; prior art statement
[2] = OCl-/HOCl equilibrium, ambient temperature

shelf stability [1] | pKa [2] | SMILES
about 3 months |  | OCl [sodium hypochlorite bleach, Sodium hypochlorite]
 | 7.5 | OCl [HOCl]
